Measurements reported in the NIST ThermoML archive (doi:10.1021/acs.jced.8b00547).
Numbers after ± are expanded uncertainties.

Legend:
[1] = xn = mol fraction of the nth substance listed; conditions: 101 kPa, Liquid, x2 = 0; for speed of sound: Single path-length method; for mass density: Vibrating tube method
[2] = refractive index (Na D-line) (dimensionless); xn = mol fraction of the nth substance listed; conditions: 101 kPa, Liquid, Standard Abbe refractometry, x2 = 0
[3] = 101 kPa, Liquid; for speed of sound: Single path-length method; for mass density: Vibrating tube method
[4] = refractive index (Na D-line) (dimensionless); conditions: 101 kPa, Liquid, Standard Abbe refractometry

| SMILES | speed of sound ([1]; 298.15 K) [m/s] | mass density ([1]; 298.15 K) [kg/m3] | speed of sound ([1]; 308.15 K) [m/s] | mass density ([1]; 308.15 K) [kg/m3] | speed of sound ([1]; 318.15 K) [m/s] | speed of sound ([3]; 298.15 K) [m/s] | mass density ([3]; 298.15 K) [kg/m3] | speed of sound ([3]; 308.15 K) [m/s] | mass density ([3]; 308.15 K) [kg/m3] | speed of sound ([3]; 318.15 K) [m/s] | mass density ([3]; 318.15 K) [kg/m3] | speed of sound ([3]; 328.15 K) [m/s] | mass density ([3]; 328.15 K) [kg/m3] | speed of sound ([3]; 338.15 K) [m/s] | mass density ([3]; 338.15 K) [kg/m3] | refractive index ([4]; 298.15 K) | refractive index ([4]; 308.15 K) | refractive index ([4]; 318.15 K) | refractive index ([4]; 328.15 K) | refractive index ([4]; 338.15 K) | also measured |
| --- | --- | --- | --- | --- | --- | --- | --- | --- | --- | --- | --- | --- | --- | --- | --- | --- | --- | --- | --- | --- | --- |
| CCC(C)O (stereo not given) [butan-2-ol] + CCCC(C)=O | 1212 ± 1.4 | 802.4 ± 0.41 | 1175.8 ± 1.4 | 793.86 ± 0.41 | 1139.5 ± 1.4 |  |  |  |  |  |  |  |  |  |  |  |  |  |  |  | mass density ([1]; 318.15 K): 785.26 ± 0.41 kg/m3; speed of sound ([1]; 328.15 K): 1102.3 ± 1.4 m/s; mass density ([1]; 328.15 K): 775.73 ± 0.42 kg/m3; speed of sound ([1]; 338.15 K): 1064.5 ± 1.4 m/s; mass density ([1]; 338.15 K): 765.75 ± 0.42 kg/m3; refractive index ([2]; 298.15 K): 1.39474 ± 0.00049; refractive index ([2]; 308.15 K): 1.39011 ± 0.00049; refractive index ([2]; 318.15 K): 1.38547 ± 0.00049; refractive index ([2]; 328.15 K): 1.38022 ± 0.00049; refractive index ([2]; 338.15 K): 1.37621 ± 0.00049 |
| CCC(C)O (stereo not given) [butan-2-ol] |  |  |  |  |  | 1212 ± 1.4 | 802.4 ± 0.41 | 1175.8 ± 1.4 | 793.86 ± 0.41 | 1139.5 ± 1.4 | 785.26 ± 0.41 | 1102.3 ± 1.4 | 775.73 ± 0.42 | 1064.5 ± 1.4 | 765.75 ± 0.42 | 1.39474 ± 0.00049 | 1.39011 ± 0.00049 | 1.38547 ± 0.00049 | 1.38022 ± 0.00049 | 1.37621 ± 0.00049 |  |
| CC(C)O [propan-2-ol] + CCCC(C)=O | 1138.5 ± 1.4 | 781.1 ± 0.41 | 1103.2 ± 1.4 | 772.51 ± 0.42 | 1068.1 ± 1.4 |  |  |  |  |  |  |  |  |  |  |  |  |  |  |  | mass density ([1]; 318.15 K): 763.51 ± 0.42 kg/m3; speed of sound ([1]; 328.15 K): 1032.6 ± 1.4 m/s; mass density ([1]; 328.15 K): 754.19 ± 0.42 kg/m3; speed of sound ([1]; 338.15 K): 997.33 ± 1.4 m/s; mass density ([1]; 338.15 K): 743.66 ± 0.42 kg/m3; refractive index ([2]; 298.15 K): 1.37522 ± 0.00049; refractive index ([2]; 308.15 K): 1.37083 ± 0.00049; refractive index ([2]; 318.15 K): 1.36622 ± 0.00049; refractive index ([2]; 328.15 K): 1.36146 ± 0.00049; refractive index ([2]; 338.15 K): 1.35637 ± 0.00049 |
| CCCC(C)=O [pentan-2-one] |  |  |  |  |  | 1216 ± 1.4 | 802.09 ± 0.41 | 1174.4 ± 1.4 | 792.32 ± 0.41 | 1133.3 ± 1.4 | 782.44 ± 0.41 | 1093.6 ± 1.4 | 772.43 ± 0.42 | 1053.8 ± 1.4 | 762.27 ± 0.42 | 1.38782 ± 0.00049 | 1.38284 ± 0.00049 | 1.37782 ± 0.00049 | 1.3728 ± 0.00049 | 1.36764 ± 0.00049 |  |
| CC(C)O [propan-2-ol] |  |  |  |  |  | 1138.5 ± 1.4 | 781.1 ± 0.41 | 1103.2 ± 1.4 | 772.51 ± 0.42 | 1068.1 ± 1.4 | 763.51 ± 0.42 | 1032.6 ± 1.4 | 754.19 ± 0.42 | 997.33 ± 1.4 | 743.66 ± 0.42 | 1.37522 ± 0.00049 | 1.37083 ± 0.00049 | 1.36622 ± 0.00049 | 1.36146 ± 0.00049 | 1.35637 ± 0.00049 |  |
